Experimental data: patent US20060020042A1, “Memantine for the treatment of mild and mild to moderate Alzheimer's disease” (Forest Laboratories, Inc., priority 2004, published 2006)

How the values were obtained:
[1] = test system: outpatients with mild-to-moderate Alzheimer's disease; experiment: ADAS-cog in randomized, double-blind, placebo-controlled study; format: in vivo, human; settings: for ADAS-cog Non-Responder, number of patients / ADAS-cog Responder (change from baseline <= -4), number of patients / ADAS-cog Difference (memantine minus placebo, LS mean): Week 24, ITT; for ADAS-cog Difference (memantine minus placebo, LS mean): 20 mg/day
Text: The present invention is based on results from a randomized, double-blind, placebo-controlled, multi-center, parallel-group study comparing memantine to placebo in outpatients diagnosed with probable AD according to […] criteria. Severity of mild to moderate was established using the Mini-Mental State Examination (MMSE) score (≧10 and ≦22; 0 is the lowest score and 30 is the highest score). In the study of the present invention, there were approximately 400 patients enrolled across 42 centers. Evaluation of primary efficacy was achieved by Alzheimer's Disease Assessment Scale-cognitive subscale (ADAS-cog) and the Clinician's Interview-Based Impression of Change including caregiver information (CIBIC-plus). Secondary efficacy was determined using Alzheimer's disease Cooperative Study-Activities of Daily Living (ADCS-ADL) and Neuropsychiatric Inventory (NPI) criteria. The ADAS-cog comprises an 11-item scale that is used to assess the severity of selected areas of cognitive impairment (memory, language, orientation, reason and praxis). Scores range from 0 to 70 with lower scores indicating lesser severity and a score of 70 representing the worst cognitive impairment. Its use in assessing and following changes in patients with mild to moderate Alzheimer's disease has been extensively validated. The ADAS-cog was administered at each clinic visit starting with the Baseline visit and at the end of weeks 4, 8, 12, 18 and 24 (or upon early termination). The study consisted of 1-2 weeks of single-blind placebo treatment followed by 24 weeks of double-blind treatment. Results were evaluated over seven clinical visits; at initial screening, baseline, and the end of weeks 4, 8, 12, 18 and 24. The population of patients who received at least one dose of double-blind memantine, and completed at least one post-baseline efficacy evaluation of either the ADAS-cog or the CIBIC-plus is designated the “intent-to-treat” (ITT) population. The population of randomized patients who received at least one dose of double-blind study medication is designated the “safety population”. The randomized population designates all patients randomized into the study. This study was conducted as a fixed-dose study. All patients assigned to the memantine group received an initial dose of 5 mg per day; the dose was titrated in 5 mg weekly increments to a final dose of 20 mg/day (administered as two 5 mg tablets twice a day). Study drug was provided as blister packs containing masked study medication such that placebo and memantine tablets were visually identical, and all patients received four tablets of study medication daily (in combinations of memantine 5 mg tablets and matching placebo tablets). Transient dose adjustments were permitted between weeks 3 and 8 for patients experiencing dose-limiting adverse events. However, all patients were required to receive the target dose of 20 mg/day by the end of week 8. Patients not able to tolerate the target dose by week 8 were discontinued from the study. Statistical analysis. For primary efficacy measurements, (e.g., change from Baseline (visit 2) to Week 24 in the total ADAS-cog scores from the ITT population) the comparison between memantine and placebo were performed using two-way analysis of covariance (ANCOVA) with treatment group and center as the two factors, and the baseline scores as covariate. Both the Last Observation Carried Forward (LOCF) imputation approach and the Observed Cases (OC) approach were performed at week 24. Results of ANCOVA were summarized using least square (LS) means for each treatment group with corresponding standard error (SE), the between-treatment (2-24 week) difference in the least square means with corresponding 95% confidence interval, and the between-treatment p-value corresponds to the SAS Type III sum of squares.

[2] = test system: outpatients with mild-to-moderate Alzheimer's disease; experiment: ADCS-ADL in randomized, double-blind, placebo-controlled study; format: in vivo, human; settings: Week 24, ITT, 20 mg/day
Protocol: In the study of the present invention, there were approximately 400 patients enrolled across 42 centers. Evaluation of primary efficacy was achieved by Alzheimer's Disease Assessment Scale-cognitive subscale (ADAS-cog) and the Clinician's Interview-Based Impression of Change including caregiver information (CIBIC-plus). Secondary efficacy was determined using Alzheimer's disease Cooperative Study-Activities of Daily Living (ADCS-ADL) and Neuropsychiatric Inventory (NPI) criteria. The ADCS-ADL inventory consists of 23 questions used to measure the functional capabilities of patients with dementia. These questions are selected from a larger set of 49 questions in the original ADL scale. A more common selection is of 19 questions from the same 49 question group. Each ADL item comprises a series of hierarchical sub-questions, ranging from the highest level of independent performance of each ADL to complete loss. The ADSC-ADL Inventory total score ranges from 0 (lower functioning status) to 78 (higher functioning status). A higher score indicates a better functioning status. […] Results were evaluated over seven clinical visits; at initial screening, baseline, and the end of weeks 4, 8, 12, 18 and 24. […] Descriptive statistics were calculated by visit. […]

CC12CC3CC(C)(C1)CC(N)(C3)C2 [Memantine, 1-amino-3,5-dimethyladamantane]
ADAS-cog Non-Responder, number of patients ([1]; LOCF analysis): 158/148
ADAS-cog Responder (change from baseline <= -4), number of patients ([1]; LOCF analysis): 40/47
ADAS-cog Difference (memantine minus placebo, LS mean) ([1]; LOCF analysis, p=0.003): −1.9
ADAS-cog Non-Responder, number of patients ([1]; OC analysis): 129/126
ADAS-cog Responder (change from baseline <= -4), number of patients ([1]; OC analysis): 33/34
ADAS-cog Difference (memantine minus placebo, LS mean) ([1]; OC analysis, p=0.130): −1.1
ADAS-cog LS mean change ([1]; week 8, LOCF, placebo 0.2, p 0.003): −1.2
ADAS-cog LS mean change ([1]; week 8, OC, placebo 0.2, p=0.006): −1.1
ADAS-cog LS mean change ([1]; week 12, LOCF, placebo -0.1, p=0.009): −1.4
ADCS-ADL Difference (memantine minus placebo, LS mean) ([2]; LOCF analysis, p=0.890): 0.1
ADCS-ADL Difference (memantine minus placebo, LS mean) ([2]; OC analysis, p=0.975): 0.0
